From patent US9777070B2, “Anti-PTK7 antibody-drug conjugates” (Pfizer Inc., priority 2014, dated 2017)
≈ marks a conversion by molar mass, not a printed value. Square brackets hold non-standard residues; d marks the D form. Peptide text beside a SMILES is read from it. * marks the point of attachment. Dolaproine = CO[C@@H]([C@@H]1CCCN1)[C@@H](C)C(=O)O; Dil = CC[C@H](C)[C@H](NC)[C@@H](CC(=O)O)OC; Doe = c1ccc(C[C@H](N*)c2nccs2)cc1; Aib = CC(C)(N)C(=O)O

Assays:
H446 cells = assay: In vitro cytotoxicity, MTS, 4 days; format: cell-based; details: Homo sapiens, NCI-H446, 96 h
Protocol: (§1) The cytotoxicity of the antibody-drug conjugate hu24-vc0101 was evaluated on cell lines that express the target PTK7. The engineered HEK293T-PTK7 over-expressing cell line was plated into a clear flat-bottom tissue culture plate (BD Falcon) at 500 cells per 180 μL of cell culture media per well. Human cancer cell lines were also tested in this assay and plated at a density that was previously determined to be optimal for each cell line according to their rate of growth (H661 1500 cells/well and H446 9600 cells/well in 150 μl). The cells were incubated overnight at 37° C. in a 5% CO2 incubator. On the following day, the hu24-vc0101 ADC and the 8.84 Ab-vc0101 ADC (negative control) were added to the cells on a 10 point concentration curve in triplicate samples starting with 3 or 10 μg/mL with 1:3 dilutions in cell culture media. The plate was incubated in a 37° C., 5% CO2 incubator for 4 days. The MTS assay (Promega CellTiter 96 Aqueous Non-Radioactive Cell Proliferation Assay) was used according to the supplier's instructions. 30 μL (H446, H661) or 40 μL (HEK293T-PTK7) of the combined MTS reagent was added to each well, and the plate was incubated in a 37° C., 5% CO2 incubator for 2 hours. The OD was determined at 490 nm with a 96-well plate reader. The average reading from wells with media alone was subtracted from the readings of wells with cells to control for background OD.

H661 cells = assay: In vitro cytotoxicity, MTS, 4 days; format: cell-based; details: Homo sapiens, NCI-H661, 96 h
Protocol: as §1

H661 lung cancer cells = assay: Microtubule structure by anti-tubulin immunofluorescence; format: cell-based, human; details: 48 hours, ADC or mAb 0-4 μg/mL, free 0101 0.1-10 nM, FIG. 22
Protocol: The cells were then fixed in 3% paraformaldehyde, washed with PBS, permeabilized with 0.5% Triton-X® (Sigma Chemical) in PBS, washed with PBS, and incubated with blocking buffer (5% normal goat serum and 0.2% Tween-20 in PBS). Cells were incubated with the primary anti-α-tubulin antibody (Sigma NoT9026, clone DM1A) in blocking buffer for 1 hour at room temperature. Afterwards, the cells were washed with PBS and incubated for 30 minutes with an Alexa Fluor® 488-conjugated secondary antibody (Invitrogen Corp) and 4′,6-diamidino-2-phenylindole (DAPI) to stain the DNA. The cells were visualized on a Zeiss LSM 510 Meta confocal microscope.

CC[C@H](C)[C@@H]([C@@H](CC(=O)N1CCC[C@H]1[C@H](OC)[C@@H](C)C(=O)N[C@@H](Cc1ccccc1)c1nccs1)OC)N(C)C(=O)[C@@H](NC(=O)C(C)(C)N)C(C)C [compound 0101, 2-methylalanyl-N-[(3R,4S,5S)-3-methoxy-1-{(2S)-2-[(1R,2R)-1-methoxy-2-methyl-3-oxo-3-{[(1S)-2-phenyl-1-(1,3-thiazol-2-yl)ethyl]amino}propyl]pyrrolidin-1-yl}-5-methyl-1-oxoheptan-4-yl]-N-methyl-L-valinamide] (H-[Aib]V[Dil][Dolaproine]-Doe)
IC50 (H446 cells): 0.59 ng/mL (≈ 0.794 nM)
IC50 (H661 cells): 0.33 ng/mL (≈ 0.444 nM)
effect on microtubule structure and cell cycle (H661 lung cancer cells): disrupted microtubule structure and led to G2/M cell cycle arrest
